Experimental findings from patent US8168592B2 (Amgen Inc., priority 2005, dated 2012) are described below.

Data set [1] addresses T1, CGRP1 receptor (human neuroblastoma cell (SK-N-MC) membrane) (Homo sapiens, UniProt O60894+Q16602).
T1 construct: human neuroblastoma cell (SK-N-MC) membrane suspension; purchased PerkinElmer; host or cells: SK-N-MC human neuroblastoma cell membranes (endogenous receptor)
In words: CGRP1 binding assay (125I-hαCGRP displacement). As to conditions: Table 3B. The procedure:
CGRP1 binding experiments. […] The plates were incubated at room temperature for 2 hour with shaking at 60 rpm, then the contents of each well were filtered over 0.5% polyethyleneimine (PEI)-treated (at least one hour) GF/C 96-well filter plates. The GF/C filter plates were washed 6 times with ice-cold 50 mM Tris, pH 7.5 and dried in an oven at 55 C for 1 hour. The bottoms of the GF/C plates were then sealed, and 40 μl Microscint™ 20 was added to each well, then the tops of the GF/C plates were sealed with TopSeal™-A, a press-on adhesive sealing film, and the GF/C plates were counted with TopCount NXT (Packard). The data were analyzed by using ActivityBase (IDBS) or Prizm (GraphPad) software.

For a further data set, the target named is T2, CGRP1 receptor (Homo sapiens, UniProt O60894+Q16602).
T2 construct: SK-N-MC cells express CRLR and RAMP1, which form CGRP1 receptor; endogenous in cells; host or cells: SK-N-MC human neuroblastoma cells
In words: in vitro CGRP1 receptor mediated cAMP assay in SK-N-MC cells. Type of data set: cell-based. As to conditions: non-PEGylated double substitution at R11 and R18. In a few lines: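 Human SK-N-MC neuroblastoma cells, which endogenously express CRLR/RAMP1, were plated two days before assay and preincubated in plasma-free medium for 15 minutes at room temperature. Cells were then lysed for 30 minutes at 37° C, and cAMP in the lysates was quantified by competitive cAMP-AP chemiluminescent ELISA.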
For orientation: Changes in cAMP serve as a functional read-out for many G protein-coupled receptors.

Data set [2] can be described thus: in vitro stability in 10% rat plasma, LC-MS/MS. Type of data set: in vitro ADME. The settings on record: room temperature. The protocol: (§1) Consequently, the stability of select, non-PEGylated analogs was evaluated in vitro in the presence of 10% rat or human plasma. Briefly, samples of each peptide were diluted to 100 ng/ml into PBS containing 10% of rat or human plasma. Each sample was then incubated at room temperature and analyzed by LC-MS/MS to quantitate the intact peptide remaining at select time points over 6 hours.

A short description of data set [3]: in vitro stability in 10% human plasma, LC-MS/MS. Format: in vitro ADME. As to conditions: room temperature. The protocol:
as §1

Square brackets hold non-standard residues; d marks the D form. Peptide text beside a SMILES is read from it. 1Nal = N[C@@H](Cc1cccc2ccccc12)C(=O)O; Phg = N[C@H](C(=O)O)c1ccccc1

T1 sequence (Q16602 23-461): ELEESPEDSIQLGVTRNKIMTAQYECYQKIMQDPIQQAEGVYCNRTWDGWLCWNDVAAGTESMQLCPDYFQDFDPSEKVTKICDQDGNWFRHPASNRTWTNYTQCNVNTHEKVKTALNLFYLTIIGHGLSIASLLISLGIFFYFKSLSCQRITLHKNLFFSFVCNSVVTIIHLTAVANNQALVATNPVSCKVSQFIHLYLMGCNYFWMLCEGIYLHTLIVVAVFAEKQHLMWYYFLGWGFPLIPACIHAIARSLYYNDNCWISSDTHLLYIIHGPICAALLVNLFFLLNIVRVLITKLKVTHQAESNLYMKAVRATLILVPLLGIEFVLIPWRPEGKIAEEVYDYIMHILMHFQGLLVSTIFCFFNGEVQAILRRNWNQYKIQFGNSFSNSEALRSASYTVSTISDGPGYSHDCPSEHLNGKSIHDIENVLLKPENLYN
T1 sequence (O60894 27-148): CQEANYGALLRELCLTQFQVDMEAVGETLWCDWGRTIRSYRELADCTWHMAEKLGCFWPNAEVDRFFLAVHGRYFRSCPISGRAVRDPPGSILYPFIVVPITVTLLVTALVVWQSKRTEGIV
T2 sequence (Q16602 23-461): as the sequence (Q16602 23-461) above
T2 sequence (O60894 27-148): as the sequence (O60894 27-148) above

As to “685 (Ac-WVTHRLAGLLSRSGGVVK(20 kDa PEG)NNFVPTDVGPFAF-NH2) [compound 685]”, in data set [1], the Ki – broadly, the equilibrium dissociation constant of an inhibitor or competing ligand from its target – stood at 155 nM.

Consider “686 (Ac-WVTHRLAGLLSRSGGVVK(20 kDa PEG)NNFVPTDVGPFAF-NH2) [compound 686]”, for which affinity in data set [1] was put at a Ki of 1.33 nM.

Consider “687 (Ac-WVTHRLAGLLSRSGGVVK(20 kDa PEG)NNFVPTDVGPFAF-NH2) [compound 687]”, for which the inhibitory constant (Ki) in data set [1] amounted to 0.49 nM.

For the compound `CC(=O)N[C@@H](Cc1c[nH]c2ccccc12)C(=O)N[C@H](C(=O)N[C@H](C(=O)N[C@@H](Cc1cnc[nH]1)C(=O)N[C@@H](CCCCNC(=N)N)C(=O)N[C@@H](CC(C)C)C(=O)N[C@@H](C)C(=O)NCC(=O)N[C@@H](CC(C)C)C(=O)N[C@@H](CC(C)C)C(=O)N[C@@H](CO)C(=O)N[C@@H](CCCCNC(=N)N)C(=O)N[C@@H](CO)C(=O)NCC(=O)NCC(=O)N[C@H](C(=O)N[C@H](C(=O)N[C@@H](CCCNC(=N)N)C(=O)N[C@@H](CCCCN)C(=O)N[C@@H](CC(N)=O)C(=O)N[C@@H](Cc1ccccc1)C(=O)N[C@H](C(=O)N1CCC[C@H]1C(=O)N[C@H](C(=O)N[C@@H](CC(=O)O)C(=O)N[C@H](C(=O)NCC(=O)N1CCC[C@H]1C(=O)N[C@@H](Cc1ccccc1)C(=O)N[C@@H](C)C(=O)N[C@@H](Cc1ccccc1)C(N)=O)C(C)C)[C@@H](C)O)C(C)C)C(C)C)C(C)C)[C@@H](C)O)C(C)C` [SEQ ID NO:25], the “reduced antagonist activity relative to the single-substitution analogs” value on CGRP1 receptor was “about 5 fold”. For the same compound, the “time at which about 10% of the starting concentration remains” value is “about 5 hours” in data set [2] and “about 2 hours” in data set [3]. Further, the results for the half-life at 100 ng/ml in data set [2] (read-out: time at which 50% remains (converted)) and in data set [3] (read-out: time at which 50% depleted / detectable) were approximately 1.5 h and approximately 0.5 h, respectively.

In turn, `CC(C)C[C@H](NC(=O)CNC(=O)[C@H](C)NC(=O)[C@H](CC(C)C)NC(=O)[C@H](CCCNC(=N)N)NC(=O)[C@H](Cc1c[nH]cn1)NC(=O)[C@@H](NC(=O)[C@@H](NC(=O)[C@@H](N)Cc1cccc2ccccc12)C(C)C)[C@@H](C)O)C(=O)N[C@@H](CC(C)C)C(=O)N[C@@H](CO)C(=O)N[C@@H](CCCNC(=N)N)C(=O)N[C@@H](CO)C(=O)NCC(=O)NCC(=O)N[C@H](C(=O)N[C@H](C(=O)N[C@@H](CCCCN)C(=O)N[C@@H](CC(N)=O)C(=O)N[C@@H](CC(N)=O)C(=O)N[C@@H](Cc1ccccc1)C(=O)N[C@H](C(=O)N1CCC[C@H]1C(=O)N[C@H](C(=O)N[C@@H](CC(=O)O)C(=O)N[C@H](C(=O)NCC(=O)N1CCC[C@H]1C(=O)N[C@@H](Cc1ccccc1)C(=O)N[C@@H](C)C(=O)N[C@@H](Cc1ccccc1)C(N)=O)C(C)C)[C@@H](C)O)C(C)C)C(C)C)C(C)C` [compound 701] (H-[1Nal]VTHRLAGLLSRSGGVVKNNFVPTDVGPFAF-NH2) had an inhibitory constant (Ki) in data set [1] of 0.14 nM.

On to `CC(C)C[C@H](NC(=O)CNC(=O)[C@H](C)NC(=O)[C@H](CC(C)C)NC(=O)[C@H](CCCNC(=N)N)NC(=O)[C@H](Cc1c[nH]cn1)NC(=O)[C@@H](NC(=O)[C@@H](NC(=O)[C@@H](N)c1ccccc1)C(C)C)[C@@H](C)O)C(=O)N[C@@H](CC(C)C)C(=O)N[C@@H](CO)C(=O)N[C@@H](CCCNC(=N)N)C(=O)N[C@@H](CO)C(=O)NCC(=O)NCC(=O)N[C@H](C(=O)N[C@H](C(=O)N[C@@H](CCCCN)C(=O)N[C@@H](CC(N)=O)C(=O)N[C@@H](CC(N)=O)C(=O)N[C@@H](Cc1ccccc1)C(=O)N[C@H](C(=O)N1CCC[C@H]1C(=O)N[C@H](C(=O)N[C@@H](CC(=O)O)C(=O)N[C@H](C(=O)NCC(=O)N1CCC[C@H]1C(=O)N[C@@H](Cc1ccccc1)C(=O)N[C@@H](C)C(=O)N[C@@H](Cc1ccccc1)C(N)=O)C(C)C)[C@@H](C)O)C(C)C)C(C)C)C(C)C` [compound 703] (H-[Phg]VTHRLAGLLSRSGGVVKNNFVPTDVGPFAF-NH2), for which, in data set [1], the inhibition constant Ki is 0.19 nM.

As for `CC(=O)NCSC[C@H](NC(=O)[C@@H](NC(=O)[C@H](C)NC(=O)[C@@H](NC(=O)[C@H](CC(=O)O)NC(=O)[C@H](CO)NC(=O)[C@H](C)N)[C@@H](C)O)[C@@H](C)O)C(=O)N[C@H](C(=O)N[C@H](C(=O)N[C@@H](Cc1c[nH]cn1)C(=O)N[C@@H](CCCNC(=N)N)C(=O)N[C@@H](CC(C)C)C(=O)N[C@@H](C)C(=O)NCC(=O)N[C@@H](CC(C)C)C(=O)N[C@@H](CC(C)C)C(=O)N[C@@H](CO)C(=O)N[C@@H](CCCNC(=N)N)C(=O)N[C@@H](CO)C(=O)NCC(=O)NCC(=O)N[C@H](C(=O)N[C@H](C(=O)N[C@@H](CCCCN)C(=O)N[C@@H](CC(N)=O)C(=O)N[C@@H](CC(N)=O)C(=O)N[C@@H](Cc1ccccc1)C(=O)N[C@H](C(=O)N1CCC[C@H]1C(=O)N[C@H](C(=O)N[C@@H](CC(N)=O)C(=O)N[C@H](C(=O)NCC(=O)N[C@@H](CO)C(=O)N[C@@H](CCCCN)C(=O)N[C@@H](C)C(=O)N[C@@H](Cc1ccccc1)C(N)=O)C(C)C)[C@@H](C)O)C(C)C)C(C)C)C(C)C)[C@@H](C)O)C(C)C` [compound 707], the inhibitory constant (Ki) in data set [1] stood at 20.8 nM.

`CC(C)C[C@H](NC(=O)CNC(=O)[C@H](C)NC(=O)[C@H](CC(C)C)NC(=O)[C@H](CCCNC(=N)N)NC(=O)[C@H](Cc1c[nH]cn1)NC(=O)[C@@H](NC(=O)[C@@H](NC(=O)[C@H](CO)NC(=O)[C@@H](NC(=O)[C@H](C)NC(=O)[C@@H](NC(=O)[C@H](CC(=O)O)NC(=O)[C@H](CO)NC(=O)[C@H](C)N)[C@@H](C)O)[C@@H](C)O)C(C)C)[C@@H](C)O)C(=O)N[C@@H](CC(C)C)C(=O)N[C@@H](CO)C(=O)N[C@@H](CCCNC(=N)N)C(=O)N[C@@H](CO)C(=O)NCC(=O)NCC(=O)N[C@H](C(=O)N[C@H](C(=O)N[C@@H](CCCCN)C(=O)N[C@@H](CC(N)=O)C(=O)N[C@@H](CC(N)=O)C(=O)N[C@@H](Cc1ccccc1)C(=O)N[C@H](C(=O)N1CCC[C@H]1C(=O)N[C@H](C(=O)N[C@@H](CC(N)=O)C(=O)N[C@H](C(=O)NCC(=O)N[C@@H](CO)C(=O)N[C@@H](CCCCN)C(=O)N[C@@H](C)C(=O)N[C@@H](Cc1ccccc1)C(N)=O)C(C)C)[C@@H](C)O)C(C)C)C(C)C)C(C)C` [compound 709]: the inhibition constant Ki in data set [1] is 12 nM.

On to `CC(C)[C@H](NC(=O)[C@@H](N)Cc1ccccc1)C(=O)N1CCC[C@H]1C(=O)N[C@H](C(=O)N[C@@H](CC(=O)O)C(=O)N[C@@H](C(=O)NCC(=O)N1CCC[C@H]1C(=O)N[C@@H](Cc1ccccc1)C(=O)N[C@@H](C)C(=O)N[C@@H](Cc1ccccc1)C(N)=O)C(C)C)[C@@H](C)O` [compound 711], for which the Ki in data set [1] was more than 1000 nM.

With `CC(C)[C@H](NC(=O)[C@H](CC(=O)O)NC(=O)[C@@H](NC(=O)[C@@H]1CCCN1C(=O)[C@@H](NC(=O)[C@@H](N)Cc1ccccc1)C(C)C)[C@@H](C)O)C(=O)NCC(=O)N1CCC[C@H]1C(=O)N[C@H](Cc1ccccc1)C(=O)N[C@@H](C)C(=O)N[C@@H](Cc1ccccc1)C(N)=O` [compound 712], the inhibition constant (Ki) in data set [1] is more than 1000 nM.

In turn, `CC(C)[C@H](NC(=O)[C@H](CC(=O)O)NC(=O)[C@@H](NC(=O)[C@@H]1CCCN1C(=O)[C@@H](NC(=O)[C@@H](N)Cc1ccccc1)C(C)C)[C@@H](C)O)C(=O)NCC(=O)N1CCC[C@@H]1C(=O)N[C@@H](Cc1ccccc1)C(=O)N[C@@H](C)C(=O)N[C@@H](Cc1ccccc1)C(N)=O` [compound 713] showed a Ki in data set [1] of more than 1000 nM.

The compound `CC(C)[C@H](NC(=O)[C@H](CC(=O)O)NC(=O)[C@@H](NC(=O)[C@@H]1CCCN1C(=O)[C@@H](NC(=O)[C@@H](N)Cc1ccccc1)C(C)C)[C@@H](C)O)C(=O)NCC(=O)N1CCC[C@H]1C(=O)N[C@@H](Cc1ccccc1)C(=O)N[C@H](C)C(=O)N[C@@H](Cc1ccccc1)C(N)=O` [compound 715] displayed a Ki in data set [1] of more than 1000 nM.

Compound `CC(C)[C@H](NC(=O)[C@@H](CC(=O)O)NC(=O)[C@@H](NC(=O)[C@@H]1CCCN1C(=O)[C@@H](NC(=O)[C@@H](N)Cc1ccccc1)C(C)C)[C@@H](C)O)C(=O)NCC(=O)N1CCC[C@H]1C(=O)N[C@@H](Cc1ccccc1)C(=O)N[C@@H](C)C(=O)N[C@@H](Cc1ccccc1)C(N)=O` [compound 719] gave an inhibition constant Ki in data set [1] of more than 1000 nM.

Turning to `CC(C)[C@H](NC(=O)[C@H](CC(=O)O)NC(=O)[C@@H](NC(=O)[C@@H]1CCCN1C(=O)[C@@H](NC(=O)[C@@H](N)Cc1ccccc1)C(C)C)[C@@H](C)O)C(=O)NCC(=O)N1CCC[C@H]1C(=O)N[C@@H](Cc1ccccc1)C(=O)N[C@@H](C)C(=O)N[C@H](Cc1ccccc1)C(N)=O` [compound 720], the inhibition constant Ki in data set [1] is more than 1000 nM.
